Measured values taken from patent publication US8574563B2 (Bristol-Myers Squibb Company, priority 2006, dated 2013).
Like-named read-outs stand apart in the source and are kept apart here.

Tested on: HCV 1b-377-neo replicon cells
Assay: HCV replicon assay, HCV 1b-377-neo replicon cells (1b FRET)
Assay type: cell-based, Hepatitis C virus genotype 1b
Conditions: HCV 1b-377-neo replicon cells, HCV 1b genotype, read-out: EC50 range against HCV 1b (Table 2, Range)
Outline: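 Compounds were tested in genotype 1b subgenomic replicon cells carrying a neomycin marker, alongside a matched replicon line with an NS5A Y2065H substitution that confers resistance to a reference NS5A inhibitor.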

SMILES	EC50 (Hepatitis C virus) [nM]	EC50 [nM]
COC(=O)N[C@@H](C(=O)N1CCC[C@H]1c1ncc(-c2ccc(-c3ccc(-c4cnc([C@@H]5CCCN5C(=O)c5cnc[nH]5)[nH]4)cc3)cc2)[nH]1)c1ccccc1 [Example M65, methyl ((1R)-2-((2S)-2-(5-(4′-(2-((2S)-1-(1H-imidazol-5-ylcarbonyl)-2-pyrrolidinyl)-1H-imidazol-5-yl)-4-biphenylyl)-1H-imidazol-2-yl)-1-pyrrolidinyl)-2-oxo-1-phenylethyl)carbamate]	1 to 99	–
CCN(CC)CCC(NC(=O)OC)C(=O)N1CCC[C@H]1c1ncc(-c2ccc(-c3ccc(-c4cnc([C@@H]5CCCN5C(=O)[C@H](NC(=O)OC)c5ccccc5)[nH]4)cc3)cc2)[nH]1 (stereo partly drawn) [Example M66a, methyl ((1R)-2-((2S)-2-(5-(4′-(2-((2S)-1-(4-(diethylamino)-2-((methoxycarbonyl)amino)butanoyl)-2-pyrrolidinyl)-1H-imidazol-5-yl)-4-biphenylyl)-1H-imidazol-2-yl)-1-pyrrolidinyl)-2-oxo-1-phenylethyl)carbamate]	100 to 999	–
CC[C@H](C(=O)N1CCC[C@H]1c1ncc(-c2ccc(-c3ccc(-c4cnc([C@@H]5CCCN5C(=O)[C@H](NC(=O)OC)c5ccccc5)[nH]4)cc3)cc2)[nH]1)N(CC)CC [Example M66x, methyl ((1R)-2-((2S)-2-(5-(4′-(2-((2S)-1-((2R)-2-(diethylamino)butanoyl)-2-pyrrolidinyl)-1H-imidazol-5-yl)-4-biphenylyl)-1H-imidazol-2-yl)-1-pyrrolidinyl)-2-oxo-1-phenylethyl)carbamate]	1 to 99	–
CCN(CC)CCC(NC(=O)OC)C(=O)N1CCC[C@H]1c1ncc(-c2ccc(-c3ccc(-c4cnc([C@@H]5CCCN5C(=O)[C@@H](NC(=O)OC)C(C)C)[nH]4)cc3)cc2)[nH]1 (stereo partly drawn) [Example M67a, methyl ((1S)-1-(((2S)-2-(5-(4′-(2-((2S)-1-(4-(diethylamino)-2-((methoxycarbonyl)amino)butanoyl)-2-pyrrolidinyl)-1H-imidazol-5-yl)-4-biphenylyl)-1H-imidazol-2-yl)-1-pyrrolidinyl)carbonyl)-2-methylpropyl)carbamate]	100 to 999	–
COC(=O)N[C@@H](CCN1CCOCC1)C(=O)N1CCC[C@H]1c1ncc(-c2ccc(-c3ccc(-c4cnc([C@@H]5CCCN5C(=O)[C@@H](NC(=O)OC)C(C)C)[nH]4)cc3)cc2)[nH]1 [Example M68]	–	100 to 999
CCN(CC)[C@@H](C)C(=O)N1CCC[C@H]1c1ncc(-c2ccc(-c3ccc(-c4cnc([C@@H]5CCCN5C(=O)[C@@H](NC(=O)OC)C(C)C)[nH]4)cc3)cc2)[nH]1 [Example M69, methyl ((1S)-1-(((2S)-2-(5-(4′-(2-((2S)-1-(N,N-diethyl-L-alanyl)-2-pyrrolidinyl)-1H-imidazol-5-yl)-4-biphenylyl)-1H-imidazol-2-yl)-1-pyrrolidinyl)carbonyl)-2-methylpropyl)carbamate]	100 to 999	–
CCN(CC)[C@H](C)C(=O)N1CCC[C@H]1c1ncc(-c2ccc(-c3ccc(-c4cnc([C@@H]5CCCN5C(=O)[C@@H](NC(=O)OC)C(C)C)[nH]4)cc3)cc2)[nH]1 [Example M70, methyl ((1S)-1-(((2S)-2-(5-(4′-(2-((2S)-1-(N,N-diethyl-D-alanyl)-2-pyrrolidinyl)-1H-imidazol-5-yl)-4-biphenylyl)-1H-imidazol-2-yl)-1-pyrrolidinyl)carbonyl)-2-methylpropyl)carbamate]	1 to 99	–
COC[C@H](NC(=O)OC)C(=O)N1CCC[C@H]1c1ncc(-c2ccc(-c3ccc(-c4cnc([C@@H]5CCCN5C(=O)[C@@H](NC(=O)OC)C(C)C)[nH]4)cc3)cc2)[nH]1 [Example M71, methyl ((1S)-2-((2S)-2-(5-(4′-(2-((2S)-1-(N-(methoxycarbonyl)-L-valyl)-2-pyrrolidinyl)-1H-imidazol-5-yl)-4-biphenylyl)-1H-imidazol-2-yl)-1-pyrrolidinyl)-1-(methoxymethyl)-2-oxoethyl)carbamate]	1 to 99	–
COC(=O)N[C@H](C(=O)N1CCC[C@H]1c1ncc(-c2ccc(-c3ccc(-c4cnc([C@@H]5CCCN5C(=O)[C@@H](NC(=O)OC)C(C)(C)C)[nH]4)cc3)cc2)[nH]1)C(C)C [Example M72, methyl ((1S)-1-(((2S)-2-(5-(4′-(2-((2S)-1-((2S)-2-((methoxycarbonyl)amino)-3,3-dimethylbutanoyl)-2-pyrrolidinyl)-1H-imidazol-5-yl)-4-biphenylyl)-1H-imidazol-2-yl)-1-pyrrolidinyl)carbonyl)-2-methylpropyl)carbamate]	1 to 99	–
COC(=O)NCC(=O)N1CCC[C@H]1c1ncc(-c2ccc(-c3ccc(-c4cnc([C@@H]5CCCN5C(=O)[C@@H](NC(=O)OC)C(C)C)[nH]4)cc3)cc2)[nH]1 [Example M73, methyl (2-((2S)-2-(5-(4′-(2-((2S)-1-((2S)-2-((methoxycarbonyl)amino)-3-methylbutanoyl)-2-pyrrolidinyl)-1H-imidazol-5-yl)-4-biphenylyl)-1H-imidazol-2-yl)-1-pyrrolidinyl)-2-oxoethyl)carbamate]	100 to 999	–
CC[C@H](NC(=O)OC)C(=O)N1CCC[C@H]1c1ncc(-c2ccc(-c3ccc(-c4cnc([C@@H]5CCCN5C(=O)[C@@H](NC(=O)OC)C(C)C)[nH]4)cc3)cc2)[nH]1 [Example M74, methyl ((1S)-1-(((2S)-2-(5-(4′-(2-((2S)-1-((2S)-2-((methoxycarbonyl)amino)butanoyl)-2-pyrrolidinyl)-1H-imidazol-5-yl)-4-biphenylyl)-1H-imidazol-2-yl)-1-pyrrolidinyl)carbonyl)-2-methylpropyl)carbamate]	1 to 99	–
CCC[C@H](NC(=O)OC)C(=O)N1CCC[C@H]1c1ncc(-c2ccc(-c3ccc(-c4cnc([C@@H]5CCCN5C(=O)[C@@H](NC(=O)OC)C(C)C)[nH]4)cc3)cc2)[nH]1 [Example M75, methyl ((1S)-1-(((2S)-2-(5-(4′-(2-((2S)-1-((2S)-2-((methoxycarbonyl)amino)-3-methylbutanoyl)-2-pyrrolidinyl)-1H-imidazol-5-yl)-4-biphenylyl)-1H-imidazol-2-yl)-1-pyrrolidinyl)carbonyl)butyl) carbamate]	–	1 to 99
C=CC[C@H](NC(=O)OC)C(=O)N1CCC[C@H]1c1ncc(-c2ccc(-c3ccc(-c4cnc([C@@H]5CCCN5C(=O)[C@@H](NC(=O)OC)C(C)C)[nH]4)cc3)cc2)[nH]1 [Example M76, methyl ((1S)-1-(((2S)-2-(5-(4′-(2-((2S)-1-((2S)-2-((methoxycarbonyl)amino)-3-methylbutanoyl)-2-pyrrolidinyl)-1H-imidazol-5-yl)-4-biphenylyl)-1H-imidazol-2-yl)-1-pyrrolidinyl)carbonyl)-3-buten-1-yl)carbamate]	1 to 99	–
COC(=O)N[C@H](C(=O)N1CCC[C@H]1c1ncc(-c2ccc(-c3ccc(-c4cnc([C@@H]5CCCN5C(=O)[C@@H](NC(=O)OC)C5CC5)[nH]4)cc3)cc2)[nH]1)C(C)C [Example M77, methyl ((1S)-1-(((2S)-2-(5-(4′-(2-((2S)-1-((2S)-2-cyclopropyl-2-((methoxycarbonyl)amino)acetyl)-2-pyrrolidinyl)-1H-imidazol-5-yl)-4-biphenylyl)-1H-imidazol-2-yl)-1-pyrrolidinyl)carbonyl)-2-methylpropyl)carbamate]	1 to 99	–
